Reference: patent US5414000A, “Antiviral pyrinyl substituted tetrahydropyrans” (Bristol-Myers Squibb Co., priority 1994, dated 1995)

Assays:
Type in all cases: cell-based
[1] = system: HSV-2 (herpes simplex virus type 2, strain 186); experiment: HSV-2 antiviral plaque reduction assay in WI-38 cell culture; settings: Human alphaherpesvirus 2, 96 h; HSV-2 strain 186; WI-38 monolayers; at least 50% plaque reduction vs virus controls; 4 days at 37° C.; read-out: ID50 HSV-2
Description: (§1) Assays were performed in cell culture systems to determine the concentrations of compounds that are effective in preventing several kinds of viral infections. Abbreviations:
(§2) HSV-1 (herpes simplex virus type 1, strain Schooler), HSV-2 (herpes simplex virus type 2, strain 186), VZV (varicella zoster virus, strain ELLEN), HCMC (human cytomegalovirus, strain AD 169). Cell Culture Assays:
(§3) HSV-1, HSV-2, HCMV and VZV antiviral assays: Virus was adsorbed to WI-38 cell culture monolayers in 5 well culture plates (Costar, Cambridge, Mass.) for 1 hour prior to addition of maintenance medium containing duplicate dilutions of the test compound. Inhibition of plaque development was evaluated on fixed and stained monolayers after 4 days incubation at 37° C. for HSV-1 and HSV-2, and after 5-7 days incubation at 37° C. for HCMV and VZV. ID50 values were determined from the drug concentration which conferred at least a 50% plaque reduction compared to virus controls.

[2] = system: VZV (varicella zoster virus, strain ELLEN); experiment: VZV antiviral plaque reduction assay in WI-38 cell culture; settings: Human alphaherpesvirus 3, WI-38 monolayers, at least 50% plaque reduction vs virus controls, 5-7 days at 37° C., read-out: ID50 VZV
Description: as §1, §2, §3

[3] = system: HCMV (human cytomegalovirus, strain AD 169); experiment: HCMV antiviral plaque reduction assay in WI-38 cell culture; settings: Human betaherpesvirus 5; HCMV strain AD 169; WI-38 monolayers; at least 50% plaque reduction vs virus controls; 5-7 days at 37° C.; read-out: ID50 HCMV
Description: as §1, §2, §3

[4] = system: HSV-1 (herpes simplex virus type 1, strain Schooler); experiment: HSV-1 antiviral plaque reduction assay in WI-38 cell culture; settings: Human alphaherpesvirus 1, 96 h; HSV-1 strain Schooler; WI-38 monolayers; at least 50% plaque reduction vs virus controls; 4 days at 37° C.; read-out: ID50 HSV-1
Description: as §1, §2, §3

`Nc1nc2c(ncn2[C@@H]2CO[C@H](CO)[C@@H](O)C2)c(=O)[nH]1` [Example 1, [3S-(3α, 5β, 6α)]-2-Amino-1,9-dihydro-9-[tetrahydro-5-hydroxy-6-(hydroxymethyl)-2H-pyran-3-yl]-6H-purin-6-one] gave an IC50 [1] of 18 µM, an IC50 [2] of 18 to 36 µM and an IC50 [3] of 18 to 36 µM. For the same compound, the IC50 [4] was 18 µM.
In the case of `Nc1ncnc2c1ncn2[C@@H]1CO[C@H](CO)[C@@H](O)C1` [Example 2, [2R-(2α, 3β, 5α)]-5-(6-Amino-9H-purin-9yl)tetrahydro-3-hydroxy-2H-pyran-2-methanol], the IC50 [1] is reported as 8 to 19 µM, the IC50 [2] is reported as 38 µM and the IC50 [3] is reported as 4 to 38 µM. It also gave an IC50 [4] of 8 to 19 µM.
Compound `Nc1ccn([C@@H]2CO[C@H](CO)[C@@H](O)C2)c(=O)n1` [Example 3, [3S-(3α, 5β, 6α)]-4-Amino-1-[tetrahydro-5-hydroxy-6-(hydroxymethyl) -2H-pyran-3-yl]-2-(1H) -pyrimidinone] has an IC50 [1] of 0.4 to 0.8 µM, an IC50 [2] of 4 to 8 µM and an IC50 [3] of 2 µM. For the same compound, the IC50 [4] was 0.4 to 0.8 µM.
`O=c1[nH]c(=O)n([C@@H]2CO[C@H](CO)[C@@H](O)C2)cc1I` [Example 4, [3S-(3α, 5β, 6α)]-5-Iodo-1-[tetrahydro-5-hydroxy-6-(hydroxymethyl) -2H-pyran-3-yl]-2,4 (1H, 3H) -pyrimidinedione] was tested, and the IC50 [1] was 3 to 5.4 µM, the IC50 [2] was 68 to 272 µM and the IC50 [3] was > 272 µM. It also gave an IC50 [4] of 0.3 to 1.4 µM.
With `Cc1cn([C@@H]2CO[C@H](CO)[C@@H](O)C2)c(=O)[nH]c1=O` [Example 5, [3S-(3α, 5β, 6α)]-5-Methyl-1-[tetrahydro-5-hydroxy-6-(hydroxymethyl)-2H-pyran-3-yl]-2,4 (1H, 3H)-pyrimidinedione] the IC50 [1] was > 390 µM, the IC50 [2] was 39 to 390 µM and the IC50 [3] was ≥ 390 µM. The IC50 [4] was 390 µM.
With `O=c1[nH]c(=O)n([C@@H]2CO[C@H](CO)[C@@H](O)C2)cc1/C=C/Br` [Example 6] the IC50 [1] was > 288 µM, the IC50 [2] was 5.7 to 14.5 µM and the IC50 [3] was > 288 µM. It also gave an IC50 [4] of 29 to 72 µM.
